According to US7338932B2, “Methods of modulating functions of polypeptide GalNAc-transferases and of screening test substances to find agents herefor, pharmaceutical compositions comprising such agents and the use of such agents for preparing medicaments” (Glycozym APS, priority 2000, dated 2008):
pIC50: −log10 of the molar value.

The molecules below were run against T1, GalNAc-T2 (Homo sapiens, UniProt Q10471) (assay: GalNAc-T2 transferase activities with UDP-GalNAc or UDP-Gal donor (Muc2 acceptor, peptide panel)). Settings: peptide as acceptor substrate.
T1 construct: Soluble, secreted expression constructs of human GalNAc-transferases GalNAc-T1, -T2, -T3, -T4, -T6, -T7, and -T11; made in house; host or cells: insect cells (baculovirus)
Type: biochemical
Procedure: (§1) Standard reaction mixtures (50 μl final volume) contained 25 mM cocadylate (pH 7.4), 10 mM MnCl2, 0.25% Triton X-100, 200 μM UDP-[^14C]-GalNAc (2,000 cpm/nmol) (Amersham), 200-500 μM acceptor peptides. Products were quantified by scintillation counting after chromatography on Dowex-1, octadecyl silica cartridges (Bakerbond), or HPLC (PC3.2/3 or mRPC C2/C18 SC2.1/10 Pharmacia, Smart System). […] Glycopeptides were purified on Supelclean LC-18 columns (1 ml, Supelco), and the number of GalNAc residues incorporated evaluated by MALDI-TOF mass spectrometry. The enzyme sources used were semipurified as previously described by successive sequential ion-exchange chromatographies on Amberlite (IRA95, Sigma) or DEAE Sephacel (Pharmacia), S-Sepharose Fast Flow (Pharmacia), and Mini-S™ (PC 3.2/3, Pharmacia) using the Smart System (Pharmacia) (28). Secreted GalNAc-T4 was obtained from a stably transfected CHO line (CHO/GalNA-T4/21A) (8) grown in roller bottles in HAMS F12 supplemented with 10% Fetal Bovine Serum. The experiments illustrated in FIG. 1 was performed with recombinant secreted GalNAc-T4 obtained from a stably transfected CHO line (8). Experiments illustrated in FIGS. 2 and 3 were performed with secreted GalNAc-T4 expressed in High Five cells grown in serum-free medium (8). Structural analysis of glycopeptides were performed by a combination of PFPA (pentafluoropropionic acid) hydrolysis and MALDI-TOF mass spectrometry as previously described (40). Secreted GalNAc-T7 was obtained from infected High Five™ cells grown in serum-free medium (Invitrogen) in upright roller bottles shaken 140 rpm in waterbaths at 27° C. GalNAc-T7 was not purified by Mini-S as the yields from cationic chromatography were low due to its low pI (6.4).
(§2) Galactosyl transferring activities of GalNAc-T1, -T2, and -T3, were assayed with a panel of acceptor peptides in standard reaction mixtures containing 100 μM UDP-Gal instead of UDP-GalNAc. […] Further, analysis was performed with 10 mM α-D-GalNAc-1-benzyl, αGlcNAc-benzyl, and fully occupied GalNAc-glycopeptide, GalNAC6TAP25, at 5 mM.

Molecule	GalNAc-T2 activity with UDP-Gal by acceptor peptide
Muc2: acceptor peptide PTTTPISTTTMVTPTPTPTC derived from human intestinal mucin MUC2	90 nmol/min/mL

What follows are molecules tested against T2, secreted soluble GalNAc-T4 (sT4) (Homo sapiens, UniProt Q8N4A0) (assay: Direct binding ELISA to GalNAc-MUC1 glycopeptide, competitive inhibition, sT4). Settings: binding to GalNAc-MUC1 glycopeptide.
T2 construct: using the GalNAc-T4-sol construct that encodes residues 32-578 inserted into pT7T3U19; 6xHis (N); thrombin cleavage site (N); T7 tag (N); made in house; host or cells: High Five insect cells (baculovirus)
Procedure: (§3) Protein biotinylation was made as previously reported^62. The pH of 1 ml purified protein (0.3 mg/ml) in PBS was adjusted to pH 9 with 1 M NaOH and 40 μl N-hydroxy-succinimidobiotin (Sigma) dissolved in DMF (10 mg/ml) was added. The solution was mixed end-over-end for 2 hours at room temperature, and dialyzed three times against PBS and an equal volume of glycerol was added. The biotinylated proteins were stored at −20° C. in 50% glycerol until use.
(§4) Direct binding ELISA assay was developed as follows: Polystyrene microtiter plates (Maxisorb, Nunc, Denmark) were coated with peptides or enzymatically glycosylated glycopeptides in PBS overnight at 4° C. Plates were washed and blocked with 0.1% Tween20 and 0.2% BSA in PBS for 1 h at room temperature, followed by incubation with biotinylated proteins in PBS with 0.05% Tween20 for 2 h at room temperature. After four washes with PBS, plates were incubated with 1:2,000 dilution streptavidin-HRP (Sigma) in PBS for 30 min at room temperature and washed four times with PBS. Development was performed with 0.5 mg/ml o-phenylenediamine and 0.02% H2O2 at room temperature for 15 min, and reaction stopped by adding 100 μl/well of 0.5 N H2SO4. Competitive inhibition assays were done at end-point titers of GalNAc-transferase proteins with one hour preincubations with inhibitor.
(§5) In binding studies using lectins without biotinylation antibodies to the HIS-tag and the T7-tag, or in some experiments antibodies raised to GalNAc-T2 and -T4 enzymes were used to detect binding.

Molecule	pIC50
CC(=O)N[C@H]1[C@H](OCc2ccccc2)O[C@H](CO)[C@@H](O)[C@@H]1O [BzlβGlcNAc]	< 1.00
COC1O[C@H](CO)[C@H](O)[C@H](O)[C@H]1O (single isomer, unassigned) [MeβGal]	1.40
CC(=O)N[C@H]1[C@H](Oc2ccccc2[N+](=O)[O-])O[C@H](CO)[C@H](O)[C@@H]1O [oNPβGalNAc]	3.00

Same assay, conditions: read-out: Concentration required for 50% inhibition (IC50), sT4; binding to GalNAc-MUC1 glycopeptide

Molecule	pIC50
CC(=O)N[C@H]1C(O)O[C@H](CO)[C@@H](O)[C@@H]1O (some centres unmarked) [GlcNAc]	< 1.00
CC(=O)N[C@H]1[C@H](Oc2ccc([N+](=O)[O-])cc2)O[C@H](CO)[C@H](O)[C@@H]1O [pNPβGalNAc]	3.10

These molecules were tested against T3, GalNAc-T2 lectin domain (T2ld) (Homo sapiens, UniProt Q10471) (assay: Direct binding ELISA to GalNAc-MUC1 glycopeptide, competitive inhibition, T2ld). Settings: not given.
T3 construct: made in house; host or cells: High Five insect cells (baculovirus, pAcGP67-A)
T3 sequence (Q10471 408-571): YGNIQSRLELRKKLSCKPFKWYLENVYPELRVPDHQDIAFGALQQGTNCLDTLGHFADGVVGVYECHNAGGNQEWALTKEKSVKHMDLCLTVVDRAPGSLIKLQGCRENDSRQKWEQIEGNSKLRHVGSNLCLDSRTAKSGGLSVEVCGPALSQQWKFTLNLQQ
Procedure: as §3, §4, §5

Molecule	pIC50
CC(=O)N[C@H]1[C@H](OCc2ccccc2)O[C@H](CO)[C@@H](O)[C@@H]1O [BzlβGlcNAc]	< 1.00
COC1O[C@H](CO)[C@H](O)[C@H](O)[C@H]1O (single isomer, unassigned) [MeβGal]	< 1.00
CC(=O)N[C@H]1[C@H](Oc2ccccc2[N+](=O)[O-])O[C@H](CO)[C@H](O)[C@@H]1O [oNPβGalNAc]	< 1.92

Same assay, conditions: read-out: Concentration required for 50% inhibition (IC50), T2ld

Molecule	pIC50
CC(=O)N[C@H]1C(O)O[C@H](CO)[C@@H](O)[C@@H]1O (some centres unmarked) [GlcNAc]	< 1.00

The molecules below were run against T4, GalNAc-T4 (Homo sapiens, UniProt Q8N4A0) (assay: Inhibition of glycosylation dependent (GalNAc-glycopeptide) activity of GalNAc-T4, MALDI-TOF time-course). Settings: […] free sugar.
T4 construct: using the GalNAc-T4-sol construct that encodes residues 32-578 inserted into pT7T3U19; made in house; host or cells: High Five insect cells (baculovirus, pAcGP67)
Type: biochemical
Procedure: MALDI-TOF time-course in terminal reactions were performed in reactions of 25 μl containing 2.5 nmol acceptor (glyco)peptide, 40 nmol UDP-GalNAc, and 0.4 μg GalNAc-T4. Sampling of reactions (1 μl) were purified by nano-scale reversed-phase chromatography (Poros R3, PerSeptive Biosystem) and applied directly to the probe with matrix (41). The amount of GalNAc-transferase added was adjusted so that the reaction with the appropriate peptide was near completion in six hours. Reactions were incubated at 37° C. in a shaker bath. At times 0, 2 hours, and 16 hours a 1 μl aliquot was taken and purified. Mass spectra were acquired on either Voyager-DE mass spectrometer equipped with delayed extraction (Perseptive Biosystem Inc.). The matrix used was 2,5-dihydroxybenzoic acid (10 mg/ml, Hewlett-Packard) dissolved in a 2:1 mixture of 0.1% trifluoroacetic acid in 30% aqueous acetonitrile (Rathburn Ltd.).
Quantification of purified proteins was done by Coomassie stained SDS-PAGE and titration of immunoreactivity with the monoclonal antibody, UH6(4G2) (8). […] Wild-type GalNAc-T4 and mutant GalNAc-T4, GalNAc-T4^459H, were analysed with unglycosylated peptides (represented by PSGL-1) or GalNAc glycosylated glycopeptides (represented by GalNAc3TAP25V21) in reactions of 25 μl containing 2.5 nmol acceptor (glyco)peptide, 40 nmol UDP-GalNAc, and 0.4 μg GalNAc-T4. Time-course assays were motioned by MALDI-TOF. Sampling of reactions (1 μl) were purified by nano-scale reversed-phase chromatography (Poros R3, PerSeptive Biosystem) and applied directly to the probe with matrix. Evaluation of inhibition of the glycopeptide specificity of wild-type GalNAc-T4 with free sugars was performed to establish if the lectin domain recognized carbohydrate. […] Further, analysis was performed with 10 mM α-D-GalNAc-1-benzyl, αGlcNAc-benzyl, and fully occupied GalNAc-glycopeptide, GalNAc6TAP25, at 5 mM.

Molecule	Inhibition of glycosylation dependent specificity of GalNAc-T4
CC(=O)N[C@H]1C(O)O[C@H](CO)[C@@H](O)[C@@H]1O (some centres unmarked) [GlcNAc]	failed to show significant inhibition

The molecules below were run against Helix Pomatia lectin (HPA) (Helix pomatia, UniProt Q2F1K8) (assay: Direct binding ELISA, competitive inhibition, Helix Pomatia lectin control). Settings: read-out: Concentration required for 50% inhibition (IC50), HPA; control plant lectin.
Excerpt: Glycopeptides were purified by C-18 reverse phase HPLC. Peptides were custom synthesized by Neosystems (Strasbourg). Biotinylated Helix Pomatia lectin (HPA) was from KemEnTec (Denmark). Anti-MUC1 HMFG2 monoclonal antibody was a generous gift from Joyce Taylor-Papadimitriou. Anti-MUC1 SE5 monoclonal antibody was developed by immunizing Balb/c mice with 60-mer MUC1 tandem repeat peptide glycosylated with 5 moles GalNAc per repeat. Monoclonal antibodies to the lectin domains of human GalNAc-T2 and -T4 were developed as previously described^8, 63.
as §4
Inhibition experiments were used to further define the binding specificity of GalNAc-T2 and -T4 secreted soluble enzymes as well as lectin domains compared to Helix Pomatia lectin (Table VII).

Molecule	pIC50
CC(=O)N[C@H]1C(O)O[C@H](CO)[C@@H](O)[C@@H]1O (some centres unmarked) [GlcNAc]	2.10
CC(=O)N[C@H]1[C@H](Oc2ccc([N+](=O)[O-])cc2)O[C@H](CO)[C@H](O)[C@@H]1O [pNPβGalNAc]	< 1.70
CC(=O)N[C@H]1[C@H](OCc2ccccc2)O[C@H](CO)[C@@H](O)[C@@H]1O [BzlβGlcNAc]	< 1.70
CC(=O)N[C@H]1[C@H](Oc2ccccc2[N+](=O)[O-])O[C@H](CO)[C@H](O)[C@@H]1O [oNPβGalNAc]	< 1.70

What follows are molecules tested against T5, GalNAc-T4 lectin domain (T4ld) (Homo sapiens, UniProt Q8N4A0) (assay: Direct binding ELISA to GalNAc-MUC1 glycopeptide, competitive inhibition, T4ld). Settings: not given.
T5 construct: made in house; host or cells: High Five insect cells (baculovirus, pAcGP67-A)
Procedure: as §3, §4, §5

Molecule	pIC50
CC(=O)N[C@H]1[C@H](OCc2ccccc2)O[C@H](CO)[C@@H](O)[C@@H]1O [BzlβGlcNAc]	< 1.00
COC1O[C@H](CO)[C@H](O)[C@H](O)[C@H]1O (single isomer, unassigned) [MeβGal]	< 1.00
CC(=O)N[C@H]1[C@H](Oc2ccccc2[N+](=O)[O-])O[C@H](CO)[C@H](O)[C@@H]1O [oNPβGalNAc]	2.10

Same assay, conditions: read-out: Concentration required for 50% inhibition (IC50), T4ld

Molecule	pIC50
CC(=O)N[C@H]1C(O)O[C@H](CO)[C@@H](O)[C@@H]1O (some centres unmarked) [GlcNAc]	< 1.00

The molecules below were run against T6, secreted soluble GalNAc-T2 (sT2) (Homo sapiens, UniProt Q10471) (assay: Direct binding ELISA to GalNAc-MUC1 glycopeptide, competitive inhibition, sT2). Settings: not given.
T6 construct: HIS-tagged secreted human GalNAc-T2 and -T4 were prepared from pAC-GP67-T2-sol and pAC-GP67-T4-sol cDNA; 6xHis (N); thrombin cleavage site (N); T7 tag (N); made in house; host or cells: High Five insect cells (baculovirus)
Procedure: as §3, §4, §5

Molecule	pIC50
CC(=O)N[C@H]1[C@H](OCc2ccccc2)O[C@H](CO)[C@@H](O)[C@@H]1O [BzlβGlcNAc]	< 1.00
COC1O[C@H](CO)[C@H](O)[C@H](O)[C@H]1O (single isomer, unassigned) [MeβGal]	< 1.00

Same assay, conditions: read-out: Concentration required for 50% inhibition (IC50), sT2

Molecule	pIC50
CC(=O)N[C@H]1C(O)O[C@H](CO)[C@@H](O)[C@@H]1O (some centres unmarked) [GlcNAc]	< 1.00

The molecules below were run against T7, GalNAc-T3 (Homo sapiens, UniProt Q14435) (assay: GalNAc-T3 transferase activities with UDP-GalNAc or UDP-Gal donor (EA2 acceptor, peptide panel)). Settings: peptide as acceptor substrate.
T7 construct: Soluble, secreted expression constructs of human GalNAc-transferases GalNAc-T1, -T2, -T3, -T4, -T6, -T7, and -T11; made in house; host or cells: insect cells (baculovirus)
T7 sequence (Q14435 38-633 limits assumed): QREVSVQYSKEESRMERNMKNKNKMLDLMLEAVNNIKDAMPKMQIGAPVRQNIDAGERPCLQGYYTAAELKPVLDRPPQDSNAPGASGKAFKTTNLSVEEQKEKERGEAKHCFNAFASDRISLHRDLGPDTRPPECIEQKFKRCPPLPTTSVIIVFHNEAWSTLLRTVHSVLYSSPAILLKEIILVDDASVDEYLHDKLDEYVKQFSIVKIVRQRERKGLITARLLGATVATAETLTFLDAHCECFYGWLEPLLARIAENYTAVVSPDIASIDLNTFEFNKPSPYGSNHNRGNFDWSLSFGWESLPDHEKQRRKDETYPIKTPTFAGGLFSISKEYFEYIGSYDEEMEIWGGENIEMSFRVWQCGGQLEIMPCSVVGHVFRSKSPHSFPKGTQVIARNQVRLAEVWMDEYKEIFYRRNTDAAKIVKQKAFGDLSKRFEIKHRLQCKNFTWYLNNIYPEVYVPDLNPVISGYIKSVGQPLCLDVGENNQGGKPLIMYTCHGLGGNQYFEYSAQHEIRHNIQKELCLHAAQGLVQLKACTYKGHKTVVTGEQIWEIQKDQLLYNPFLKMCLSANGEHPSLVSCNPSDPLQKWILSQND
Type: biochemical
Procedure: as §1, §2

Molecule	GalNAc-T3 activity with UDP-Gal by acceptor peptide
Muc2: acceptor peptide PTTTPISTTTMVTPTPTPTC derived from human intestinal mucin MUC2	0 nmol/min/mL
